Results published in paper PMC12381781, “Structural and functional insights into the selective inhibition of mutant tau aggregation by purpurin and oleocanthal in frontotemporal dementia” (Protein Science : A Publication of the Protein Society, 2025).

Legend:
SY5Y-TauP301L-EGFP cells = assay: SH-SY5Y seeding assay, Triton X-100 fractionation and western blot; type: cell-based
Source text: SH‐SY5Y cells were transfected with the AAVS1 CAG rtTA3 TauP301L 2N4R‐EGFP plasmid using ScreenFect‐A‐plus Transfection Reagent (ScreenFect GmbH). AAVS1 CAG rtTA3 TauP301L 2N4R‐EGFP was a gift from Gerold Schmitt‐Ulms (Addgene plasmid #132393; http://n2t.net/addgene:132393; RRID: Addgene_132393). Stable cell lines expressing TauP301L 2N4R‐EGFP were generated via puromycin selection and are referred to as SY5Y‐TauP301L‐EGFP cells. Stable expression of the inducible TauP301L‐EGFP construct was confirmed by fluorescence microscopy and Western blot after doxycycline induction.
SH‐SY5Y and SY5Y‐TauP301L‐EGFP cells were plated at 250,000 cells per well on Geltrex™‐coated culture plates (Gibco, # A1413201) and maintained in complete DMEM. After 24 h, the medium was replaced with CTS™ Neurobasal™ A Medium (Gibco, # A1371201) supplemented with 1× B‐27™ Supplement (ThermoFisher Scientific, #17504044), […] L‐glutamine, and 1% Penicillin–Streptomycin (complete neurobasal medium). Cells were differentiated by treatment with 10 μM all‐trans‐retinoic acid (RA; Sigma‐Aldrich, # R2625) for 72 h. The differentiation was continued in complete neurobasal media supplemented with 10 μM RA and 50 ng/mL recombinant human brain‐derived neurotrophic factor (BDNF) (R&D Systems, #248‐BDB‐250) for another 72 h.
Differentiated SY5Y‐TauP301L‐EGFP cells were pre‐treated with 0.5 μg/mL doxycycline (Sigma‐Aldrich, # D3447) for 24 h to induce the expression of TauP301L‐EGFP. Doxycycline was maintained in the cell culture media throughout the seeding assay. Cells were transduced with tau aggregation reaction products, standardized to 100 nM tau peptide. Transduction mixtures were prepared by combining the tau aggregation reaction products with TurboFect™ Transfection Reagent (Thermo Fisher Scientific Inc.) in Opti‐MEM™. The mixture was briefly vortexed and incubated at room temperature for 15 min before adding to cells. After 72 h, cells were processed for Triton X‐100 fractionation and western blot analysis, as described below.
Triton X‐100 soluble and insoluble fractions were prepared as described previously with minor modifications (Annadurai, Malina, Malohlava, et al., [2022]). SY5Y‐TauP301L‐EGFP cells were harvested in 1× Tris‐buffered saline (TBS) containing 0.05% Triton X‐100, supplemented with protease and phosphatase inhibitors (Roche, #04693116001 and #04906837001). After centrifugation at 1000 × g for 10 min at 4°C, the supernatant was ultracentrifuged at 24,400 × g for 1 h at 4°C to separate Triton X‐100 soluble and insoluble fractions. The insoluble fraction was resuspended in radioimmunoprecipitation assay (RIPA) buffer (Thermo Fisher Scientific, #89901) with protease and phosphatase inhibitors for further analysis.
Equal volumes of soluble and insoluble fractions were resolved by SDS‐PAGE and transferred onto nitrocellulose membranes using the Trans‐Blot Turbo Transfer System (Bio‐Rad). […]
Densitometric analysis of insoluble tau bands was performed by first normalizing total tau signal intensities to GAPDH levels measured in the corresponding soluble fractions. […]

[1] = tested on: CCRF-CEM (human leukemic lymphoblast) cells; assay: MTS cytotoxicity assay, CCRF-CEM cells; type: cell-based; conditions: 0-100 µM, 72 h
Method: Figure S16. Cytotoxic activity of PUR and OLC. Tau Biosensor and CCRF-CEM (human leukemic lymphoblast) cells were treated with increasing concentrations (0-100 µM) of PUR and OLC for 72 h. Cell viability was then assessed using the MTS assay. CCRF-CEM (human leukemic lymphoblasts) cells, known for their high sensitivity to cytotoxic agents ^1, were used as positive controls. […] Calculated IC50 values are indicated in the graphs. Mean ± SEM (n = 3).

[2] = cells transduced with P301L peptide aggregation products formed with compound vs without, 72 h

C/C=C(/C=O)[C@@H](CC=O)CC(=O)OCCc1ccc(O)cc1 [OLC, oleocanthal]
pSer262, T22, or total tau levels, soluble fractions (SY5Y-TauP301L-EGFP cells; P301L peptide aggregation products, across treatments): no significant differences | T22 or pSer262 tau, soluble and insoluble fractions (SY5Y-TauP301L-EGFP cells; WT peptide aggregation products formed with compound vs control): no substantial differences | oligomeric tau T22 level, insoluble fraction (SY5Y-TauP301L-EGFP cells; [2]): significantly reduced | pSer262 tau level, insoluble fraction (SY5Y-TauP301L-EGFP cells; [2]): significantly reduced | total tau level, insoluble fraction (SY5Y-TauP301L-EGFP cells; [2]): significantly reduced | IC50 [1]: > 10 µM
